Experimental data reported in PubChem BioAssay AID294 (DTP/NCI, 2004).
“And” between values parts separate entries of the source, which are not always exact repeats. Equal entries are not always repeated.

System: MX-1 breast xenograft, nude mice, tumor weight change
Test: NCI In Vivo Anticancer Drug Screen. Data for tumor model Human Mammary Carcinoma MX-1 Xenograft (subcutaneous) in NU/NU Swiss (nude) mice
Conditions: endpoint: optimum tumor weight change, higher = larger tumour
Method: The antitumor activity of compounds was measured in mice bearing transplantable tumors. Survival or tumor size were measured and the results are expressed as the measurement made in the treated group (T) divided by the measurement made in the vehicle treated control group (C). The tumor model used in this assay is Human Mammary Carcinoma MX-1 Xenograft (subcutaneous) in NU/NU Swiss (nude) mice

[1] = dose: 50.0 mg/kg/injection, schedule: Q04DX003 (ip), vehicle: Klucel (hydroxypropylcellulose) (HPC)
[2] = dose: 100.0 mg/kg/injection, schedule: Q04DX003 (ip), vehicle: Klucel (hydroxypropylcellulose) (HPC)
[3] = dose: 200.0 mg/kg/injection, schedule: Q04DX003 (ip), vehicle: Klucel (hydroxypropylcellulose) (HPC)
[4] = dose: 25.0 mg/kg/injection, schedule: Q04DX003 (ip), vehicle: Klucel (hydroxypropylcellulose) (HPC)
[5] = dose: 400.0 mg/kg/injection, schedule: Q04DX003 (ip), vehicle: Klucel (hydroxypropylcellulose) (HPC)
[6] = dose: 100.0 mg/kg/injection, schedule: Q04DX003 (ip), vehicle: suspension in saline
[7] = dose: 200.0 mg/kg/injection, schedule: Q04DX003 (ip), vehicle: suspension in saline
[8] = dose: 400.0 mg/kg/injection, schedule: Q04DX003 (ip), vehicle: suspension in saline
[9] = dose: 800.0 mg/kg/injection, schedule: Q04DX003 (ip), vehicle: suspension in saline
[10] = dose: 4.0 mg/kg/injection, schedule: Q04DX003 (ip), vehicle: saline
[11] = dose: 8.0 mg/kg/injection, schedule: Q04DX003 (ip), vehicle: saline
[12] = dose: 400.0 mg/kg/injection, schedule: Q04DX003 (ip), vehicle: saline
[13] = dose: 25.0 mg/kg/injection, schedule: Q04DX003 (ip), vehicle: saline

SMILES: CN(C)c1nc(N(C)C)nc(N(C)C)n1
- T/C [1]: 59 % of control
- T/C (dose: 60.0 mg/kg/injection, schedule: Q01DX005 (ip), vehicle: Klucel (hydroxypropylcellulose) (HPC)): 15 % of control
- T/C (dose: 60.0 mg/kg/injection, schedule: Q07DX005 (ip), vehicle: Klucel (hydroxypropylcellulose) (HPC)): 42 % of control
- T/C [2]: 47 % of control
- T/C (dose: 120.0 mg/kg/injection, schedule: Q01DX005 (ip), vehicle: Klucel (hydroxypropylcellulose) (HPC)): 1 % of control
- T/C (dose: 120.0 mg/kg/injection, schedule: Q04DX005 (ip), vehicle: Klucel (hydroxypropylcellulose) (HPC)): -38 % of control
- T/C [3]: 1 % of control
- T/C (dose: 240.0 mg/kg/injection, schedule: Q07DX005 (ip), vehicle: Klucel (hydroxypropylcellulose) (HPC)): -99 % of control

SMILES: CC1CCC(NC(=O)N(CCCl)N=O)CC1 (stereo not given)
- T/C [4]: 50 % of control

SMILES: Cn1cnc([N+](=O)[O-])c1[Se]c1nc(N)nc2nc[nH]c12
- T/C (dose: 12.5 mg/kg/injection, schedule: Q04DX003 (ip), vehicle: water): 103 % of control
- T/C (dose: 25.0 mg/kg/injection, schedule: Q04DX003 (ip), vehicle: water): 84 % of control
- T/C (dose: 50.0 mg/kg/injection, schedule: Q04DX003 (ip), vehicle: water): 60 % of control

SMILES: NC(Cc1ccc(N(CCCl)CCCl)cc1)C(=O)O (stereo not given)
- T/C (dose: 2.5 mg/kg/injection, schedule: Q04DX003 (ip), vehicle: Klucel (hydroxypropylcellulose) (HPC)): 49 % of control
- T/C (dose: 5.0 mg/kg/injection, schedule: Q04DX003 (ip), vehicle: Klucel (hydroxypropylcellulose) (HPC)): 15 % of control
- T/C (dose: 10.0 mg/kg/injection, schedule: Q04DX003 (ip), vehicle: Klucel (hydroxypropylcellulose) (HPC)): -69 % of control and -81 % of control

SMILES: CN(C)N=Nc1cn[nH]c1C(N)=O
- T/C [1]: 100 % of control
- T/C [2]: 98 % of control
- T/C [3]: 71 % of control
- T/C [5]: 82 % of control

SMILES: CN(C)N=Nc1cccc(C(N)=O)c1
- T/C [1]: 102 % of control
- T/C [2]: 87 % of control
- T/C [5]: 81 % of control

SMILES: ClCC[N+]12CC[N+](CCCl)(CC1)C2
- T/C (dose: 100.0 mg/kg/injection, schedule: Q04DX003 (ip), vehicle: saline with Tween-80): 60 % of control
- T/C (dose: 200.0 mg/kg/injection, schedule: Q04DX003 (ip), vehicle: saline with Tween-80): 56 % of control
- T/C (dose: 200.0 mg/kg/injection, schedule: Q04DX003 (ip), vehicle: water): 51 % of control
- T/C (dose: 400.0 mg/kg/injection, schedule: Q04DX003 (ip), vehicle: saline with Tween-80): 59 % of control
- T/C (dose: 400.0 mg/kg/injection, schedule: Q04DX003 (ip), vehicle: water): 53 % of control
- T/C (dose: 800.0 mg/kg/injection, schedule: Q04DX003 (ip), vehicle: saline with Tween-80): 31 % of control
- T/C (dose: 1600.0 mg/kg/injection, schedule: Q04DX003 (ip), vehicle: saline with Tween-80): 28 % of control

SMILES: CC(=O)OCC1OC(n2ccc(N)nc2=O)C(OC(C)=O)C1OC(C)=O (stereo not given)
- T/C [6]: 60 % of control
- T/C [7]: 62 % of control
- T/C [8]: 39 % of control
- T/C [9]: 39 % of control

SMILES: CC(=O)OCC(=O)[C@@]12OC(C)(C)O[C@@H]1C[C@H]1[C@@H]3CC(C=O)=C4C=C(OCCCl)CC[C@]4(C)[C@@]3(F)[C@@H](O)C[C@@]12C
- T/C [1]: 54 % of control

SMILES: Cc1c(N)nc(C(CC(N)=O)NCC(N)C(N)=O)nc1C(=O)NC(C(=O)NC(C)C(O)CC(=O)NC(C(=O)NC(OC1OC(C)C(N)C(O)C1O)C(O)c1nc(-c2nc(C(=O)NCCCC(N)CC(=O)NCCCNCCCCN)cs2)cs1)C(C)O)C(OC1OC(CO)C(O)C(O)C1OC1OC(CO)C(O)C(OC(N)=O)C1O)c1cnc[nH]1 (stereo not given)
- T/C [10]: 28 % of control
- T/C [11]: 11 % of control

SMILES: COC(OC(CO)C(O)S(=O)(=O)O)C(O)S(=O)(=O)O (stereo not given)
- T/C [4]: 83 % of control
- T/C [1]: 80 % of control
- T/C [2]: 62 % of control
- T/C (dose: 100.0 mg/kg/injection, schedule: Q04DX003 (ip), vehicle: saline): 63 % of control
- T/C (dose: 200.0 mg/kg/injection, schedule: Q04DX003 (ip), vehicle: saline): 74 % of control
- T/C [12]: 68 % of control
- T/C (dose: 800.0 mg/kg/injection, schedule: Q04DX003 (ip), vehicle: saline): 47 % of control

SMILES: COc1cc([C@@H]2c3cc4c(c(O)c3C[C@H]3COC(=O)[C@@H]32)OCO4)cc(OC)c1OC
- T/C (dose: 2.5 mg/kg/injection, schedule: Q04DX003 (ip), vehicle: saline): 113 % of control
- T/C (dose: 5.0 mg/kg/injection, schedule: Q04DX003 (ip), vehicle: saline): 64 % of control
- T/C (dose: 10.0 mg/kg/injection, schedule: Q04DX003 (ip), vehicle: saline): 112 % of control

SMILES: N=c1ccn2c(n1)OC1C(O)C(CO)OC12 (stereo not given)
- T/C [7]: 65 % of control
- T/C [8]: 65 % of control
- T/C [9]: 47 % of control

SMILES: C1OC1CN1CCN(CC2CO2)CC1 (stereo not given)
- T/C (dose: 12.5 mg/kg/injection, schedule: Q04DX003 (ip), vehicle: saline): 91 % of control
- T/C [13]: 79 % of control

SMILES: Cc1c(N)nc([C@H](CC(N)=O)NC[C@H](N)C(N)=O)nc1C(=O)N[C@H](C(=O)N[C@H](C)[C@@H](O)[C@H](C)C(=O)N[C@H](C(=O)NCCc1nc(-c2nc(C(=O)NCCC[S+](C)C)cs2)cs1)[C@@H](C)O)C(OC1OC(CO)C(O)C(O)C1OC1OC(CO)C(O)C(OC(N)=O)C1O)c1cnc[nH]1 (stereo not given in full)
- T/C (dose: 3.75 mg/kg/injection, schedule: Q04DX003 (ip), vehicle: saline): 52 % of control
- T/C [10]: 55 % of control
- T/C (dose: 7.5 mg/kg/injection, schedule: Q04DX003 (ip), vehicle: saline): 40 % of control and 41 % of control
- T/C [11]: 55 % of control and 67 % of control
- T/C (dose: 15.0 mg/kg/injection, schedule: Q04DX003 (ip), vehicle: saline): 31 % of control (2×) and 39 % of control
- T/C (dose: 16.0 mg/kg/injection, schedule: Q04DX003 (ip), vehicle: saline): 32 % of control and 39 % of control
- T/C (dose: 30.0 mg/kg/injection, schedule: Q04DX003 (ip), vehicle: saline): 17 % of control and 21 % of control and 25 % of control
- T/C (dose: 32.0 mg/kg/injection, schedule: Q04DX003 (ip), vehicle: saline): 15 % of control and 22 % of control and 27 % of control
- T/C (dose: 60.0 mg/kg/injection, schedule: Q04DX003 (ip), vehicle: saline): 13 % of control and 21 % of control
- T/C (dose: 64.0 mg/kg/injection, schedule: Q04DX003 (ip), vehicle: saline): 16 % of control and 27 % of control

SMILES: O=C[C@@H](CO)O[C@H](C=O)n1cnc2c(=O)[nH]cnc21
- T/C [12]: 29 % of control

SMILES: CC(C)CCCCCCCCCCCCC(=O)NCC(=O)NC1C(O)C(O)C(Nc2ncnc3nc[nH]c23)OC1C(O)CO (stereo not given)
- T/C (dose: 3.0 mg/kg/injection, schedule: Q04DX003 (ip), vehicle: suspension in saline): 91 % of control
- T/C (dose: 6.0 mg/kg/injection, schedule: Q04DX003 (ip), vehicle: suspension in saline): 109 % of control
- T/C (dose: 12.0 mg/kg/injection, schedule: Q04DX003 (ip), vehicle: suspension in saline): 30 % of control

SMILES: O=P1(NCCCl)OCCCN1CCCl (stereo not given)
- T/C [13]: 57 % of control
- T/C (dose: 50.0 mg/kg/injection, schedule: Q04DX003 (ip), vehicle: saline): 56 % of control

SMILES: COc1cccc2c1C(=O)c1c(O)c3c(c(O)c1C2=O)C[C@@](O)(C(=O)CO)C[C@@H]3OC1CC(N)C(O)C(C)O1 (stereo not given in full)
- T/C (dose: 1.0 mg/kg/injection, schedule: Q04DX003 (ip), vehicle: water): 97 % of control

SMILES: N[C@@H](Cc1ccc(N(CCCl)CCCl)cc1)C(=O)O
- T/C (dose: 2.0 mg/kg/injection, schedule: Q04DX003 (ip), vehicle: Klucel (hydroxypropylcellulose) (HPC)): 49 % of control
- T/C (dose: 4.0 mg/kg/injection, schedule: Q04DX003 (ip), vehicle: Klucel (hydroxypropylcellulose) (HPC)): 37 % of control
- T/C (dose: 4.0 mg/kg/injection, schedule: Q04DX003 (ip), vehicle: suspension in saline): 19 % of control and 36 % of control
- T/C (dose: 8.0 mg/kg/injection, schedule: Q04DX003 (ip), vehicle: Klucel (hydroxypropylcellulose) (HPC)): -42 % of control

SMILES: COc1cccc2c1C(=O)c1c(O)c3c(c(O)c1C2=O)C[C@@](O)(/C(C)=N\O)C[C@@H]3OC1CC(N)C(O)C(C)O1 (stereo not given in full)
- T/C [13]: 66 % of control

SMILES: CC(CN1CC(=O)NC(=O)C1)N1CC(=O)NC(=O)C1 (stereo not given)
- T/C [6]: 65 % of control
- T/C [7]: 73 % of control
- T/C [8]: 55 % of control

SMILES: OC(C1CO1)C(O)C1CO1 (stereo not given)
- T/C (dose: 1.0 mg/kg/injection, schedule: Q04DX003 (ip), vehicle: saline): 70 % of control

SMILES: CN(C)C=O
- T/C [8]: 44 % of control
- T/C [9]: 53 % of control
- T/C (dose: 1600.0 mg/kg/injection, schedule: Q04DX003 (ip), vehicle: suspension in saline): 57 % of control
